US20200017496A1 (priority 2017, published 2020)
Like-named read-outs stand apart in the source and are kept apart here.

Key:
CTX-M-15 = molecular target: T1, CTX-M-15 (Escherichia coli, UniProt Q9EXV5); experiment: biochemical
T1 construct: made in house; host or cells: E. coli

[1] = Rat intraduodenal bioavailability determination (Method 3); assay type: in vivo, Sprague-Dawley (SD) rats; settings: male, Sprague-Dawley, AF1 titrated in plasma
SHV-1 = molecular target: T2, SHV-1 (Klebsiella pneumoniae, UniProt P0AD64); experiment: biochemical
T2 construct: made in house; host or cells: E. coli

OXA-48 = molecular target: T3, OXA-48 (Klebsiella pneumoniae, UniProt Q6XEC0); experiment: biochemical
T3 construct: made in house; host or cells: E. coli

KPC-2 = molecular target: T4, KPC-2 (Klebsiella pneumoniae, UniProt Q9F663); experiment: biochemical
T4 construct: made in house; host or cells: E. coli

TEM-1 = molecular target: T5, TEM-1 (Escherichia coli, UniProt P62593); experiment: β-lactamase inhibitory activity, IC50 (nitrocefin hydrolysis); assay type: biochemical
T5 construct: made in house; host or cells: E. coli

PAE ampC = PAE ampC (Pseudomonas aeruginosa, UniProt P24735); experiment: biochemical
Experimental: (§1) Method 1: β-Lactamase Inhibitory Activity, Determination of IC50 (Table 1)
(§2) Enzymes were cloned in E. coli expression vector, expressed and purified in house using classical procedures. […] After 30 min of pre-incubation at room temperature, 155 μL of NCF (100 μM final) were finally added in each well. […] Enzyme activity was obtained by subtracting the background from the final signal, and was converted to enzyme inhibition using non inhibited wells. IC50 curves were fitted to a classical Langmuir equilibrium model with Hill slope using XLFIT (IDBS).

SAU PC1 = SAU PC1 (Staphylococcus aureus, UniProt P00807); experiment: biochemical
Experimental: as §1, §2

P99 ampC = molecular target: T6, P99 ampC (Enterobacter cloacae, UniProt P05364); experiment: biochemical
T6 construct: made in house; host or cells: E. coli
Experimental: as §1, §2

OXA-40 = molecular target: T7, OXA-40 (Acinetobacter baumannii, UniProt Q8RLA6); experiment: biochemical
T7 construct: made in house; host or cells: E. coli
Experimental: as §1, §2

OXA-23 = molecular target: T8, OXA-23 (Acinetobacter baumannii, UniProt Q9L4P2); experiment: biochemical
T8 construct: made in house; host or cells: E. coli

OXA-1 = molecular target: T9, OXA-1 (Escherichia coli, UniProt P13661); experiment: biochemical
T9 construct: made in house; host or cells: E. coli

OXA-15 = molecular target: T10, OXA-15 (Pseudomonas aeruginosa, UniProt Q51574); experiment: biochemical
T10 construct: made in house; host or cells: E. coli

[2] = molecular target: CMY-37 (Citrobacter freundii); experiment: β-lactamase inhibitory activity, IC50 (nitrocefin hydrolysis); assay type: biochemical
Experimental: as §1, §2

OXA-58 = molecular target: T11, OXA-58 (Acinetobacter baumannii, UniProt Q2TR58); experiment: as above; assay type: biochemical
T11 construct: made in house; host or cells: E. coli
Experimental: as §1, §2

OXA-11 = molecular target: T12, OXA-11 (Pseudomonas aeruginosa, UniProt Q06778); experiment: as above; assay type: biochemical
T12 construct: made in house; host or cells: E. coli
Experimental: as §1, §2

SHV-12 = molecular target: T13, SHV-12 (Klebsiella pneumoniae, UniProt P0AD64, E235K/G234S/L31Q); experiment: as above; assay type: biochemical
T13 construct: made in house; host or cells: E. coli

OXA-51 = OXA-51 (Acinetobacter baumannii, UniProt Q5QT35)
Experimental: as §1, §2

[3] = Mouse oral bioavailability determination, CEFIXIME/Example 3 combination (Method 4); parameters: species or system Swiss Mouse; settings: male, Swiss; Mouse; intravenous 30 mg/kg; AF1 titrated in plasma; read-out: AUC0-∞
Experimental: Water and food were available ad libitum throughout the study. Mouse were handled in accordance with the institutional and national guidelines for the care and use of laboratory animals. […] Drugs were administered by oral gavage using feeding needle. […] Plasma samples were stored at -80° C. until bioanalysis. […] Plasma samples bioanalysis and data analysis The plasma samples (20 μl) were thawed at 0° C. […] Standard samples were prepared by spiking the blank plasma into concentrations 10-5 000 ng/ml and otherwise treated as the samples. […] Mass spectrometric detection involved electrospray ionization in the negative mode followed by multiple reaction monitoring of the drugs and internal standard transitions. Actual drug concentrations were deduced from interpolation of the standard curve. The pharmacokinetic parameters were calculated using XLfit (IDBS) and Excel (Microsoft) software, using standard non-compartmental methods. The intraduodenal bioavailability was calculated by dividing the AUC obtained from the intraduodenal administration by the AUC obtained from the intravenous administration.

[4] = system: Escherichia coli (ECO) isolates; experiment: MIC of compounds alone and combined with antibacterials, broth microdilution (CLSI); assay type: cell-based; settings: Escherichia coli, alone
Experimental: (§3) Method 2: MIC of Compounds Alone and Combined with Antibacterials Against Bacterial Isolates.
(§4) Compounds of the present invention were assessed against genotyped bacterial strains (Table 3, 4) alone or in combination with an antibacterial (Table 2). […] Log phase bacterial suspensions were adjusted to a final density of 5·10^5 CFU/mL in cation-adjusted Mueller-Hinton broth (ca-MHB; Becton-Dickinson and Company) and added to each well (98 μL). Microplates were incubated for 16-20 h at 35° C. in ambient air. The MIC of the compounds was defined as the lowest concentration of said compounds that prevented bacterial growth as read by visual inspection. The MIC of ATB at each compound concentration was defined as the lowest concentration of ATB that prevented bacterial growth as read by visual inspection.

[5] = system: Providencia stuartii (PST) isolates; experiment: as above; assay type: cell-based; settings: Providencia stuartii
Experimental: as §3, §4

[6] = system: Serratia marcescens (SMA) isolates; experiment: as above; assay type: cell-based; settings: Serratia marcescens
Experimental: as §3, §4

[7] = system: Enterobacter aerogenes (EAE) isolates; experiment: as above; assay type: cell-based; settings: Klebsiella aerogenes
Experimental: as §3, §4

[8] = system: Citrobacter freundii (CFR) isolates; experiment: as above; assay type: cell-based; settings: Citrobacter freundii
Experimental: as §3, §4

[9] = system: Klebsiella pneumoniae (KPN) isolates; experiment: as above; assay type: cell-based
Experimental: as §3, §4

[10] = system: Proteus mirabilis (PMI) isolates; experiment: microbe, parasite or virus in culture; assay type: cell-based
Experimental: as §3, §4

T8 sequence (Q9L4P2 18-273): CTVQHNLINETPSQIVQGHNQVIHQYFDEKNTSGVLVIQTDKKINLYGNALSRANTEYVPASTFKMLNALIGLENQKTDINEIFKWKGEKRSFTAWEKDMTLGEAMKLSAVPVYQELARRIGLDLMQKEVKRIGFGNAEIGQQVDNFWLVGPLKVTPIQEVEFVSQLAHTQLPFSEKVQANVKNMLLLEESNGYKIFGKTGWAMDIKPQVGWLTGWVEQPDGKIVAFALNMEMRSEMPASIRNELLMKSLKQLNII
Chain of OXA-51 (Q5QT35 26-274): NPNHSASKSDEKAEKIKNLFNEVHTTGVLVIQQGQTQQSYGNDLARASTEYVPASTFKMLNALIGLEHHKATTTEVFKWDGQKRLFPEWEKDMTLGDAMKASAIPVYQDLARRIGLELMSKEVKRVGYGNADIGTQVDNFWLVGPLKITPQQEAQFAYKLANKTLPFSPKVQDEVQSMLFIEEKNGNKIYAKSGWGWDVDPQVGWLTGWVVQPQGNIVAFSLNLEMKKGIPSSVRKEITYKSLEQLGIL
T1 sequence (Q9EXV5 entry or part of it): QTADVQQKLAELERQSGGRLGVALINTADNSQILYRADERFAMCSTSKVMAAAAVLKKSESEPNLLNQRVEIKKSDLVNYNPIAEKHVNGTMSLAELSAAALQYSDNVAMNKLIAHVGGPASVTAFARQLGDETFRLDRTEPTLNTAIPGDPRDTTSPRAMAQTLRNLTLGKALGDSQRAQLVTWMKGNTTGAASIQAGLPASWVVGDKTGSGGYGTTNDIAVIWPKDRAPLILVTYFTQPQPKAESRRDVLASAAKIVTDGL
T2 sequence (P0AD64 22-286): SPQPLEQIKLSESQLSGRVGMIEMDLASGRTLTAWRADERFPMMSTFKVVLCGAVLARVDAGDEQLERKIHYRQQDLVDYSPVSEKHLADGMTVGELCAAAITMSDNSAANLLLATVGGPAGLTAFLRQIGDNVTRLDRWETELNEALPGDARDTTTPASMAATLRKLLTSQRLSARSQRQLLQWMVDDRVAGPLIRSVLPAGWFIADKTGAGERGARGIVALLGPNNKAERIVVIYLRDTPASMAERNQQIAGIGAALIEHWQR
Chain of PAE ampC (P24735 27-397): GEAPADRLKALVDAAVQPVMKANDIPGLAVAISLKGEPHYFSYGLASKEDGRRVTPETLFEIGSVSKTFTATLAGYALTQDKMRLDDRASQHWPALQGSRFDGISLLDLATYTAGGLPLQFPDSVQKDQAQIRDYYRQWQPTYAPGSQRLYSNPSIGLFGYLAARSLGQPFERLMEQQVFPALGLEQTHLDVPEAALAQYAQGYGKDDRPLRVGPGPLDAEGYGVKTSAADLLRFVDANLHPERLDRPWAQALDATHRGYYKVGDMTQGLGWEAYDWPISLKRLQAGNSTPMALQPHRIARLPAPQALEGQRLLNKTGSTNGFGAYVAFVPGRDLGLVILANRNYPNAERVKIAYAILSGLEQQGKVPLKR
T9 sequence (P13661 26-276): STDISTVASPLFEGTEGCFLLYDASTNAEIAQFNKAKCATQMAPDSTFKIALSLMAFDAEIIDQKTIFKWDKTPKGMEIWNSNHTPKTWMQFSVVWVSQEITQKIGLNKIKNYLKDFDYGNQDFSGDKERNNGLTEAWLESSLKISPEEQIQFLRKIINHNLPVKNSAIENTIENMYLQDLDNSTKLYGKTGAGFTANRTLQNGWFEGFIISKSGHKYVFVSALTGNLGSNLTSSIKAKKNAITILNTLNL
T3 sequence (Q6XEC0 23-265 limits assumed): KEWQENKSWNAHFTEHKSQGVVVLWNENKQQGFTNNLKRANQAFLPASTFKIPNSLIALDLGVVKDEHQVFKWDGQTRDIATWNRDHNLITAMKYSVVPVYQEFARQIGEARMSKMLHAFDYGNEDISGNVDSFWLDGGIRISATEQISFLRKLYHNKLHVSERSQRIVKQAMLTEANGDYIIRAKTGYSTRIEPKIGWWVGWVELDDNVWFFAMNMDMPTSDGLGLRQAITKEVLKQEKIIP
T12 sequence (Q06778 21-266): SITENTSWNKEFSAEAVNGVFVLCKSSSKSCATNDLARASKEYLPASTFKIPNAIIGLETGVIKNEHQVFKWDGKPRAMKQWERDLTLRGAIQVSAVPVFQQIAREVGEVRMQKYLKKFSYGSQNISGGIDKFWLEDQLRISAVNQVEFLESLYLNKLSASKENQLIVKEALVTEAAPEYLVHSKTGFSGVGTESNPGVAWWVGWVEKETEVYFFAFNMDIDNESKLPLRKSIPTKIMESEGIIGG
T6 sequence (P05364 21-381): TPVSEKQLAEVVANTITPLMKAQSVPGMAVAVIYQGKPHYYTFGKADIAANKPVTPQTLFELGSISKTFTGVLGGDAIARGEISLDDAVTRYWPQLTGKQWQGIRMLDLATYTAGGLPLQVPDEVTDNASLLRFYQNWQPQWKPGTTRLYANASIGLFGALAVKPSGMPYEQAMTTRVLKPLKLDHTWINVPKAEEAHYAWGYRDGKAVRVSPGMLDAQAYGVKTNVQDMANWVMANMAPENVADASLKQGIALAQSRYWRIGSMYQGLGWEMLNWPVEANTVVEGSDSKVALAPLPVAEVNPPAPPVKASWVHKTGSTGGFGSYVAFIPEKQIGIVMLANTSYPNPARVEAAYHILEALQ
T13 sequence (P0AD64 22-286 L31Q/G234S/E235K): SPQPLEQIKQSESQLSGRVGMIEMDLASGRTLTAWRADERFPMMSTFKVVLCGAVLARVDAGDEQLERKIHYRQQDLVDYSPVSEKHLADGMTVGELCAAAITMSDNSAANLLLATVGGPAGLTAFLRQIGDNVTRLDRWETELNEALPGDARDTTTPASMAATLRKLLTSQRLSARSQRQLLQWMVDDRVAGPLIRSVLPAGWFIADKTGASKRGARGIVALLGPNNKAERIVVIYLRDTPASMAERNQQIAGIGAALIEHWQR
T4 sequence (Q9F663 25-293 limits assumed): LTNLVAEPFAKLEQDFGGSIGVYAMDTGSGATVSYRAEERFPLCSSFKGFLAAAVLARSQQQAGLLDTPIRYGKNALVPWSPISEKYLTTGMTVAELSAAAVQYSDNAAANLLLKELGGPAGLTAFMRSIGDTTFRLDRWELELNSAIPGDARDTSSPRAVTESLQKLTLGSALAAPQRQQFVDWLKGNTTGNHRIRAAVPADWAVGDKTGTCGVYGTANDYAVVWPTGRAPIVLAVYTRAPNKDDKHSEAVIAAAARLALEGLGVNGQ
Chain of CMY-37 (Citrobacter freundii) (A0A9R8 21-381): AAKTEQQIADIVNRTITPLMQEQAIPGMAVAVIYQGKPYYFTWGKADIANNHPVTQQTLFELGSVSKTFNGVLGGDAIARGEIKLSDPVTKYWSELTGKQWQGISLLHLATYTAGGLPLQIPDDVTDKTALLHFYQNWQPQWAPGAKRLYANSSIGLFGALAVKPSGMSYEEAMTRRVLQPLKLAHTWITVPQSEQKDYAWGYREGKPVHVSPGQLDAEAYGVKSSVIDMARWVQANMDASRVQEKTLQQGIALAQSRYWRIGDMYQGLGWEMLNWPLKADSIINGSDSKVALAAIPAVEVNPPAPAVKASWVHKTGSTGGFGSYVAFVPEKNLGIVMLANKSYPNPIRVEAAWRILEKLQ
T7 sequence (Q8RLA6 entry or part of it): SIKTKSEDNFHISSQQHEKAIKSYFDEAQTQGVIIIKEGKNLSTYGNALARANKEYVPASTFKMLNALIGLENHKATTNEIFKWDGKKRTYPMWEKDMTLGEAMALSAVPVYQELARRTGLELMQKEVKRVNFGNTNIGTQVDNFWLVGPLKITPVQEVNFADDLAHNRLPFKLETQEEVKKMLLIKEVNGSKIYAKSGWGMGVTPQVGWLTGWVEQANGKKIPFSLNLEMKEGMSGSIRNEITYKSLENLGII
T10 sequence (Q51574 22-275): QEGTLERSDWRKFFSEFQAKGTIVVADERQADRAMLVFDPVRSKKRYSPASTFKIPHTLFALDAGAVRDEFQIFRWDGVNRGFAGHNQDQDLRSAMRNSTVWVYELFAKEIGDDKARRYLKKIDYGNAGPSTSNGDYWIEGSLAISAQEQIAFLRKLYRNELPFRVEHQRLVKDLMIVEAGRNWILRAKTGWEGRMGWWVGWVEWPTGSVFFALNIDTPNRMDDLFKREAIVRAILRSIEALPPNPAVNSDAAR
T11 sequence (Q2TR58 19-280, species assumed): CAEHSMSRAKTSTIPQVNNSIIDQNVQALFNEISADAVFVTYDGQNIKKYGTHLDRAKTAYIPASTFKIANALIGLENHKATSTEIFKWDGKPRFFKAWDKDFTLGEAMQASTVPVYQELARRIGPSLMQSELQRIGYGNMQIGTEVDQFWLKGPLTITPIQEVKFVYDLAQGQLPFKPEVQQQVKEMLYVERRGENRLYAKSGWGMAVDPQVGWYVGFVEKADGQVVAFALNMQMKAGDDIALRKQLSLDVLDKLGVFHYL
T5 sequence (P62593 24-286 limits assumed): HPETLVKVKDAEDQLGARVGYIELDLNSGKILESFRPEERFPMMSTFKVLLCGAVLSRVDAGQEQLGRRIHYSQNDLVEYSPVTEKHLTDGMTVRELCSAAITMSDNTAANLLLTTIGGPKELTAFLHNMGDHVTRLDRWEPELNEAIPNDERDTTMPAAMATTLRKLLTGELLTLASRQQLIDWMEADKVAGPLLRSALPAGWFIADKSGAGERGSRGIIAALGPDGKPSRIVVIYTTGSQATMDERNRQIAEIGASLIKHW
Chain of SAU PC1 (P00807 25-281): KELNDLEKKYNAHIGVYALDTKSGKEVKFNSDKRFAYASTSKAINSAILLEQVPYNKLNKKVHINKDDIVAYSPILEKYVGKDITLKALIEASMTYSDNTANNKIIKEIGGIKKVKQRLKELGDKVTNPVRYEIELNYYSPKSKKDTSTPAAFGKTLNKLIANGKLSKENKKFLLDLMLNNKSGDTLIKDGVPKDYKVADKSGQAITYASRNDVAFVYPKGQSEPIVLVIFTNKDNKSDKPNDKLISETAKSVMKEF

Structure (SMILES) | IC50 (CTX-M-15) | IC50 (SHV-1) | IC50 (OXA-48) | IC50 (KPC-2) | IC50 (PAE ampC) | IC50 (SAU PC1) | IC50 (P99 ampC) | IC50 (OXA-40) | IC50 (OXA-23) | IC50 (OXA-1) | IC50 (OXA-15) | IC50 [2] | IC50 (OXA-58) | IC50 (OXA-11) | IC50 (SHV-12) | other results
NC(=O)[C@@H]1CC[C@@H]2CN1C(=O)N2OC(F)(F)C(=O)[O-].[Na+] [AF1] | 0.21 nM | 0.12 nM | 75 nM | 40 nM | 660 nM | 71 nM | 550 nM | 2100 nM | 1700 nM | 1100 nM | 71 nM | 740 nM | 400 nM | 1000 nM | 1.1 nM | AUC(0-inf) ([1]; intravenous 10 mg/kg): 4130 ng·h/mL; AUC(0-inf) ([1]; intravenous 20 mg/kg, Phosphate pH 7.4, solution): 12500 ng·h/mL; IC50 (TEM-1; TEM-1, 30 min pre-incubation, nitrocefin 100 μM, read-out: IC50): 0.22 nM; IC50 (OXA-51): 1700 nM; AUC(0-inf) [3]: 11200 ng·h/mL
N#C[C@@H]1CC[C@@H]2CN1C(=O)N2OC(F)(F)C(=O)[O-].[Na+] [AF2, sodium 2-[[(2S,5R)-2-cyano-7-oxo-1,6-diazabicyclo[3.2.1]octan-6-yl]oxy]-2,2-difluoro-acetate] | 0.16 nM | 1.4 nM | 0.7 nM | 12 nM | 140 nM | 3.1 nM | 54 nM | 12 nM | 11 nM | 11 nM | 4 nM | 70 nM | 2.1 nM | 13 nM | 1.1 nM | IC50 (TEM-1): 0.96 nM; MIC ([4]; ECO 190317): > 32 µg/mL; MIC ([4]; ECO 190457): 16 µg/mL; MIC ([4]; ECO UFR16): > 32 µg/mL; MIC ([4]; ECO UFR20): > 32 µg/mL; MIC ([4]; ECO UFR61O): > 32 µg/mL; MIC ([4]; ECO UFR209): 32 µg/mL; MIC [5]: > 32 µg/mL; MIC [6]: > 32 µg/mL; MIC [7]: > 32 µg/mL; MIC [8]: > 32 µg/mL; MIC ([9]; KPN 131119, alone): >32 µg/mL; MIC ([9]; KPN 190270, alone): >32 µg/mL; MIC ([9]; KPN UFR25, alone): >32 µg/mL; MIC ([9]; KPN UFR66, alone): >32 µg/mL; MIC ([9]; KPN UFR68, alone): >32 µg/mL; MIC ([9]; Klebsiella pneumoniae): > 32 µg/mL; MIC ([10]; PMI UFR127, alone): >32 µg/mL; MIC ([10]; Proteus mirabilis): > 32 µg/mL; IC50 (OXA-51; OXA-51, 30 min pre-incubation, nitrocefin 100 μM): 51 nM
